The record followed here is patent US12570665B2, “Compositions comprising fullerenyl mesochlorin nano-photosensitizers with covalently bound antibiotics and their uses in combination therapy” (priority 2019, dated 2026).

One assay has as its system MRSA. As to conditions: against MRSA.
For another assay, the system named is MRSA (strain IQ0064). In kind it is cell-based, Staphylococcus aureus. As for the experimental part: (§1) FIG. 3. (A) aPDT against vancomycin-resistant and sensitive strains of E. fecium (VSE). Log10 survival fractions of E. fecium (10^8 cells/mL) incubated for 30 min with 50-nM concentration of VCM-mPheZn-N5^+ (LC39, see Huang, L., Wang, M., Chiang, L. Y., Hamblin, M. R., et al. Photochem. Photobiol. Sci. 2018, 17, 638-651) by irradiation with increasing exposes of a 415-nm LED light. […] Irradiation was carried out with (C) the radiant exposure of 115 J/cm^2 at 660 nm (LED light, 40 mW/cm^2) and (D) the radiant exposure of 20 J/cm^2 at 405 nm (LED light, 24 mW/cm^2). All data were represented as login survival fractions as a function of both aPDI agent concentration and light wavelength/exposure, where the dashed red line in Panel Cd represents the detection limit of MRSA CFU. […] (E) Concentration dependent aPDI of MRSA (strain IQ0064) by ChlPd-(C70>)N10^+ (LC41) upon illumination at 115 J/cm^2 and 660-nm wavelength (40 mW/cm^2).
Bacterial strains: Two Gram-positive MRSA strains (IQ0064 and IB0004) and one Gram-negative Acinetobacter baumannii strain (AF0004) were studied. All of them are clinical isolates. MRSA IQ0064 was a multidrug-resistant strain isolated from wounded military personnel deployed to Iraq. According to a microbiology test, IQ0064 strain was resistant to ampicillin, cefazolin, cefoxitin, oxacillin, and penicillin. MRSA IB0004 was an isolate from a keratitis patient. A. baumannii AF0004 was a multidrug-resistant strain isolated from wounded military personnel deployed to Afghanistan. AF0004 was resistant to a panel of important antibiotics including amikacin, ampicillin, aztreonam, cefazolin, cefepime, cefoxitin, ceftazidime, ceftriaxone, cefuroxime, ciprofloxacin, gentamicin, imipenem, levofloxacin, meropenem, nitrofurantoin, tetracycline and trimethoprim-sulfamethoxazole.
Light source: Light was delivered topically using a noncoherent light source (LumaCare, Newport Beach, CA) that provided the full spectrum of visible light (400 to 800 nm). The system employed interchangeable filter probes and produced a uniform spot for illumination. We used a 660±15-nm filter probe. The irradiance of 40 mW/cm^2 was used throughout the study. The light power was routinely measured using a laser power meter (Fieldmate; Coherent, Portland, OR).
Antimicrobial photodynamic inactivation (aPDI) of bacteria: Bacterial suspensions were adjusted to 10^8 CFU/mL, inoculated to 96-well plates (200 μL/well), incubated with fullerenes at 6.25, 12.50, 18.75, and 25.00 μM concentrations for 1.0 h and then either left in dark or irradiated with 660 nm light at 115 J/cm^2. At the completion of each stage of illumination, the contents of the wells were well mixed before sampling. Aliquots (30 μL) were taken from each well to determine CFU. The aliquots were serially diluted 10-fold in phosphate-buffered saline (PBS) to give dilutions of 10^1 to 10^5 times in addition to the original concentration; then, 10 μL aliquots of each of the dilutions were streaked horizontally on square BHI plates. Plates were streaked in triplicate and incubated for 24 h at 37° C. in the dark to allow colony formation. Control groups included bacterial cells that were treated with light alone (no fullerene monoadducts added), and cells treated with fullerene monoadducts (no light) as the dark control. Survival fractions were routinely expressed as ratios of CFU of bacterial cells treated with light and fullerene monoadducts, or treated with fullerenes in the absence of light, to CFU of bacteria treated with neither.

In a further assay the test system is MRSA cells. The assay is described as follows: Binding to MRSA cells by confocal microscopy fluorescence imaging. The format is cell-based, Staphylococcus aureus. Conditions: 405-nm irradiation, red emission 640-780 nm.
The subject of a further assay is A. baumannii (AF0004). As to conditions: 12.5 μM. The source says:
Bacterial strains: Two Gram-positive MRSA strains (IQ0064 and IB0004) and one Gram-negative Acinetobacter baumannii strain (AF0004) were studied. All of them are clinical isolates. MRSA IQ0064 was a multidrug-resistant strain isolated from wounded military personnel deployed to Iraq. According to a microbiology test, IQ0064 strain was resistant to ampicillin, cefazolin, cefoxitin, oxacillin, and penicillin. MRSA IB0004 was an isolate from a keratitis patient. A. baumannii AF0004 was a multidrug-resistant strain isolated from wounded military personnel deployed to Afghanistan. […]
Light source: Light was delivered topically using a noncoherent light source (LumaCare, Newport Beach, CA) that provided the full spectrum of visible light (400 to 800 nm). […] The light power was routinely measured using a laser power meter (Fieldmate; Coherent, Portland, OR).
Antimicrobial photodynamic inactivation (aPDI) of bacteria: Bacterial suspensions were adjusted to 10^8 CFU/mL, inoculated to 96-well plates (200 μL/well), incubated with fullerenes at 6.25, 12.50, 18.75, and 25.00 μM concentrations for 1.0 h and then either left in dark or irradiated with 660 nm light at 115 J/cm^2. […] Survival fractions were routinely expressed as ratios of CFU of bacterial cells treated with light and fullerene monoadducts, or treated with fullerenes in the absence of light, to CFU of bacteria treated with neither.

The subject of another assay is E. fecium. As to conditions: 50 nM, 415 nm irradiation, VCM-resistant and sensitive strains. How it is done: as §1

Where only a bound is given, the exact number is not on record here.

One may read the MIC as the lowest concentration that inhibits growth of the organism. Read a high MIC as a less susceptible organism. As to “3a-hydroxy-3b-aminoethylene-aminoPEGlycolated vancomycin-15b-methyl-13a,17c-di[N,N′,N,N,N,N-hexapropyl-panta(aminoethylene)]amide-mesochlorin [LC40e]”, in the assay with MRSA, the minimal inhibitory concentration (MIC) turned out to be 2.0 µg/mL. Besides, the “photokilling efficacy on MRSA” value with MRSA (strain IQ0064) (10-20 μM, 405-nm irradiation, 20 J/cm^2) was found to be 5.0 log10. Further, the “CFU reduction (photokilling of MRSA)” value in the assay on MRSA (strain IQ0064) (10-20 μM, 660-nm light, 115 J/cm^2) is on record as above 6.5 log10 CFU. Moreover, the “light mediated killing of MRSA cells (qualitative)” value with MRSA (strain IQ0064) (405- and 660-nm photoexcitation, up to 20 μM) was “susceptible to light mediated killing”. In addition, in the assay on MRSA (strain IQ0064) (combination versus antibiotic activity alone), the “additional increase in the inactivation of bacteria by the combination of antibiotics and aPDT” value stood at 3 log10 CFU. Further, in the assay on MRSA (strain IQ0064) (without red-light irradiation, bacterium not given, MRSA implied), the “antibiotic activity, CFU killing without red-light irradiation” value was 4 log10 CFU. Besides, the “red FL emission on pretreated MRSA cells (relative cell affinity)” value in the assay on MRSA cells is recorded as “significantly enhanced”. Besides, the “dark toxicity to A. baumannii cells” value in the assay with A. baumannii (AF0004) (no light) is listed as “about 1.5 log10 CFU”. Also, the “CFU reduction (inactivation of A. baumannii CFUs)” value in the assay with A. baumannii (AF0004) (red light 660 nm, 115 J/cm^2) is listed as above 6 log10 CFU.
For the molecule “3a-hydroxy-3b-vancomycin-15b-methyl-17c-[N,N′,N,N,N,N-hexapropyl-penta(aminoethylene)]amide-[Zn^+2]mesopheophorbide [LC39]”, the aPDT effect entry in the assay on E. fecium is given as “excellent aPDT effect”.
As to `CN[C@H](CC(C)C)C(=O)N[C@H]1C(=O)N[C@@H](CC(N)=O)C(=O)N[C@H]2C(=O)N[C@H]3C(=O)N[C@H](C(=O)N[C@H](C(=O)O)c4cc(O)cc(O)c4-c4cc3ccc4O)[C@H](O)c3ccc(c(Cl)c3)Oc3cc2cc(c3O[C@@H]2O[C@H](CO)[C@@H](O)[C@H](O)[C@H]2O[C@H]2C[C@](C)(N)[C@H](O)[C@H](C)O2)Oc2ccc(cc2Cl)[C@H]1O` [vancomycin, reference compound], the “effect on viability of MRSA cells” value in the assay with MRSA (strain IQ0064) (equivalent dose, control, 660 nm and 405 nm (FIGS. 3Ca, 3Da)) is given as “negligible effect”.
